This is an account of results in patent US4430341A, “Water soluble pesticidal quaternary ammonium salt compounds” (Union Carbide Corporation, priority 1977, dated 1984).

One data set concerns Bean. The data set can be described thus: Phytotoxicity test, Bean. It is filed as in vivo. More on the design: key: 1: no perceptible injury; 2: intermediate degrees of injury based upon the number and extent to which leaves were injured; 3: intermediate degrees of injury based upon the number and extent to which leaves were injured; 4: intermediate degrees of injury based upon the number and extent to which leaves were injured; 5: the plant was dead. The following applies: 2500 parts per million; ten days. As for the experimental part:
(§1) Experiments were also conducted to determine the phytotoxicity of a representative composition with respect to healthy fresh plants. A solution of the compound prepared as described above to provide a concentration of 2500 parts per million of the test compound. The test plants were sprayed in accordance with the procedure described above for the Mite Foliage Spray Test so as to deliver approximately 100 milliliters of test solution to the leaves of each plant tested. The sprayed plants and controls were set aside for approximately one hour to allow the solutions to dry and were then placed in the greenhouse. After ten days the plants were visually inspected to determine the extent of foliage injury. A rating of 1 indicates no perceptible injury; 5 indicates the plant was dead and ratings of 2, 3 and 4 indicate intermediate degrees of injury based upon the number and extent to which leaves were injured.

The subject of data set [1] is Cot. The data set can be described thus: Phytotoxicity test, Cot. (fourth column). The following applies: 2500 parts per million; ten days. Set-up: key: 1: no perceptible injury; 2: intermediate degrees of injury based upon the number and extent to which leaves were injured; 3: intermediate degrees of injury based upon the number and extent to which leaves were injured; 4: intermediate degrees of injury based upon the number and extent to which leaves were injured; 5: the plant was dead. It counts as in vivo. As for the experimental part:
as §1

Data set [2] relates to Mexican bean beetle (Epilachna varivestis, Muls.). The data set can be described thus: Mexican Bean Beetle Leaf Spray Test. It counts as in vivo. Set-up: key: A: Excellent control; B: Partial control; C: No control. The following applies: 500 parts per million; three days. As for the experimental part:
(§2) The compound of EXAMPLE IV was evaluated to determine its pesticidal activity against mites and certain insects, including an aphid, a caterpillar, a beetle and a fly.
(§3) Suspensions of the test compound was prepared by dissolving one gram of compound in 50 milliliters of acetone in which had been dissolved 0.1 gram (10 percent of the weight of compound) of an alkylphenoxy polyethoxyethanol surfactant, as an emulsifying or dispersing agent. The resulting solution was mixed into 150 milliliters of water to give roughly 200 of milliliters of a suspension containing the compound in finely divided form. The thus-prepared stock suspension contained 0.5 percent by weight of test compound. The test concentrations in parts per million by weight employed in the tests described hereinbelow were obtained by appropriate dilutions of the stock suspension with water. The test procedures were as follows.
Fourth instar larvae of the Mexican bean beetle (Epilachna varivestis, Muls.) reared on Tendergreen bean plants at a temperature of 80±5° and 50±5 percent relative humidity, were the test insects.
The test compound was formulated by diluting the stock suspension with water to give a suspension containing 500 parts of test compound per million parts of final formulation. […]

For data set [3], the system named is bean aphid (Aphis fabae Scop.). Put plainly: Bean Aphid Foliage Spray Test. It counts as in vivo. Set-up: key: A: Excellent control; B: Partial control; C: No control. To be noted: 500 parts per million; 24 hour holding period. The protocol: as §2, §3
Adults and nymphal stages of the bean aphid (Aphis fabae Scop.) reared on potted dwarf nasturtium plants at 65°-70° F. and 50-70 percent relative humidity, constituted the test insects. […]
The potted plants (one pot per compound tested) infested with 100-150 aphids, were placed on a revolving turntable and sprayed with 100-110 milliliters of test compound formulation by use of a DeVilbiss spray gun set at 40 psig. air pressure. […] Percent mortality was recorded for various concentration levels. […]

A short description of the next data set: Water solubility. It counts as physicochemical. The following applies: 25° C.
The subject of data set [4] is southern armyworm (Prodenia Eridania, (Cram.)). The data set can be described thus: Southern Armyworm Leaf Spray Test. It is filed as in vivo. Set-up: key: A: Excellent control; B: Partial control; C: No control. The following applies: 500 parts per million; three days. The protocol: as §2, §3
Larvae of the southern armyworm (Prodenia Eridania, (Cram.), reared on Tendergreen bean plants at a temperature of 80±5° F. and relative humidity of 50±5 percent, constituted the test insects. […]
This application which lasted 25 seconds was sufficient to wet plants to run-off. […] Percent mortality was recorded for various concentration levels. […]

In a further data set the test system is Soybean. Put plainly: Phytotoxicity test, Soybean. More on the design: key: 1: no perceptible injury; 2: intermediate degrees of injury based upon the number and extent to which leaves were injured; 3: intermediate degrees of injury based upon the number and extent to which leaves were injured; 4: intermediate degrees of injury based upon the number and extent to which leaves were injured; 5: the plant was dead. It counts as in vivo. To be noted: 2500 parts per million; ten days. The protocol:
as §1

For data set [5], the system named is Cot. Put plainly: Phytotoxicity test, Cot. (second column). The following applies: 2500 parts per million; ten days. More on the design: key: 1: no perceptible injury; 2: intermediate degrees of injury based upon the number and extent to which leaves were injured; 3: intermediate degrees of injury based upon the number and extent to which leaves were injured; 4: intermediate degrees of injury based upon the number and extent to which leaves were injured; 5: the plant was dead. It counts as in vivo. As for the experimental part: as §1

For data set [6], the system named is two-spotted mite (Tetranychus urticae Koch). The data set can be described thus: Mite Foliage Spray Test. It is filed as in vivo. Set-up: key: A: Excellent control; B: Partial control; C: No control. To be noted: 500 parts per million; six days. The protocol:
as §2, §3
Adults and nymphal stages of the two-spotted mite (Tetranychus urticae Koch), reared on Tendergreen bean plants at 80±5 percent relative humidity, were the test organisms. Infested leaves from a stock culture were placed on the primary leaves of two bean plants six to eight inches in height, growing in a two- and-a-half inch clay pot. 150-200 mites, a sufficient number for testing, transferred from the excised leaves to the fresh plants in a period of twenty-four hours. […]

The test system of the next data set is Tom. Put plainly: Phytotoxicity test, Tom. It is filed as in vivo. Set-up: key: 1: no perceptible injury; 2: intermediate degrees of injury based upon the number and extent to which leaves were injured; 3: intermediate degrees of injury based upon the number and extent to which leaves were injured; 4: intermediate degrees of injury based upon the number and extent to which leaves were injured; 5: the plant was dead. The following applies: 2500 parts per million; ten days. As for the experimental part: as §1

Data set [7] concerns house flies (Musca domestica, L.). Put plainly: Fly Bait Test. It is filed as in vivo. More on the design: key: A: Excellent control; B: Partial control; C: No control. To be noted: 500 parts per million in sugar solution bait; twenty four hours. The protocol:
as §2, §3
Four to six day old adult house flies (Musca domestica, L.) reared according to the specifications of the Chemical Specialties Manufacturing Association (Blue Book, McNair-Dorland Co., N.Y., 1954; pages 243-244, 261) under controlled conditions of 80±° F. and 50±5 percent relative humidity, were the test insects. […]

Usually solubility stands for the concentration that dissolves in the medium under given conditions.

`CN(C(=O)C[N+](C)(C)CCOCC[N+](C)(C)CC(=O)N(C)C(=O)Oc1cccc2ccccc12)C(=O)Oc1cccc2ccccc12` [EXAMPLE IV]: the “Herbicidal: Bean” value in the data set on Bean was 2. Also, the results for the “Herbicidal: Cot.” value in the data set with Cot. [1] and with Cot. [5] were 2 and 1, respectively. In [2], the “Insecticidal and Miticidal: Mexican Bean Beetle” value is given as “A”. Besides, the “Insecticidal and Miticidal: Aphid” value in data set [3] was “B”. In addition, the “% Water Solubility” value in “Water solubility” was 20%. In the data set “Water solubility” (water), this molecule returned a solubility of 200 mg/mL. In addition, the “Insecticidal and Miticidal: So. Army Worm” value in data set [4] is listed as “A”. Also, the “Herbicidal: Soybean” value in the data set on Soybean is on record as 2. In data set [6], the “Insecticidal and Miticidal: Mite” value is listed as “C”. Also, in the data set with Tom., the “Herbicidal: Tom.” value was found to be 1. Moreover, in data set [7], the “Insecticidal and Miticidal: House Fly” value was “A”.
